Drawing on patent publication US8937089B2, “Synergistic mixtures of anthranilamide invertebrate pest control agents” (priority 2004, dated 2015), this text covers mortality for four compounds.

Holding throughout (test): whole plant or invertebrate
Format in all cases: in vivo

The subject of assay [1] is silverleaf whitefly (Bemisia argentifolii Bellows and Perring). The note with it: Bemisia argentifolii, in Gossypium hirsutum, Table 2B, read-out: % mortality (obs); for mortality at 1000 ppm: rate 1000 ppm; for mortality at 10 ppm: rate 10 ppm. The source says: For evaluating control of silverleaf whitefly (Bemisia argentifolii Bellows and Perring) through contact and/or systemic means, each test unit consisted of a small open container with a 12- to 14-day-old cotton plant inside. This was pre-infested by placing test units into cages infested with adult whiteflies so that oviposition on the cotton leaves could occur. The adults were removed from the plants with an air-blast nozzle, and the test units were capped. The test units were then stored 2 to 3 days before spraying.
(§1) Test compounds were formulated using a solution containing 10% acetone, 90% water and 300 ppm X-77® Spreader Lo-Foam Formula non-ionic surfactant containing alkylarylpolyoxyethylene, free fatty acids, glycols and 2-propanol (Loveland Industries, Inc.) to provide the desired concentration in ppm. Formulated test solutions were then applied in 1 mL volumes through a SUJ2 atomizer nozzle with 1/8 JJ custom body (Spraying Systems Co.) positioned 1.27 cm (0.5 inches) above the top of each test unit.
The results for all experimental compositions in this test were replicated three times. After spraying of the formulated test composition, each test unit was allowed to dry for 1 hour and the cap removed. The test units were held for 13 days in a growth chamber at 28° C. and 50-70% relative humidity.

The test system of assay [2] is western flower thrip (Frankliniella occidentalis Pergande). The conditions noted are these: Frankliniella occidentalis, 168 h, single compound, spray, 7 days, read-out: % mortality (obs); for mortality at 10 ppm: rate 10 ppm; for mortality at 100 ppm: rate 100 ppm; for mortality at 1000 ppm: rate 1000 ppm. As for the experimental part: as §1
For evaluating control of the western flower thrip (Frankliniella occidentalis Pergande) through contact and/or systemic means, each test unit consisted of a small open container with a 5- to 7-day-old bean (var. Soleil) plant inside.
Test solutions were formulated and sprayed with 3 replications as described for Test A. After spraying, the test units were allowed to dry for 1 hour, 22 to 27 adult thrips were added to each unit and then a black, screened cap was placed on top. The test units were held for 7 days at 25° C. and 45-55% relative humidity.

Assay [3] relates to potato leafhopper (Empoasca fabae Harris). The note with it: Empoasca fabae, alone, read-out: % mortality (obs); for mortality at 10 ppm: rate 10 ppm; for mortality at 100 ppm: rate 100 ppm; for mortality at 1000 ppm: rate 1000 ppm. The method, then:
as §1
[…] White sand was added to the top of the soil, and one of the primary leaves was excised prior to application. Test compounds were formulated and sprayed with 3 replications as described for Test A. After spraying, the test units were allowed to dry for 1 hour before they were infested with 5 potato leafhoppers (18- to 21-day-old adults). A black, screened cap was placed on the top of each container. The test units were held for 6 days in a growth chamber at 19-21° C. and 50-70% relative humidity.

The test system of assay [4] is corn planthopper (Peregrines maidis). The conditions noted are these: Corn Plant Hopper, read-out: % mortality (obs); for mortality at 0.1 ppm: rate 0.1 ppm; for mortality at 0.2 ppm: rate 0.2 ppm; for mortality at 0.3 ppm: rate 0.3 ppm; for mortality at 1000 ppm: rate 1000 ppm. The method, then:
as §1
For evaluating control of corn planthopper (Peregrines maidis) through contact and/or systemic means, each test unit consisted of a small open cylindrical container with a 3- to 4-day-old corn (maize) plant (spike) inside. White sand was added to the top of the soil prior to application. Test compounds were formulated and sprayed with 3 replications as described for Test A. After spraying, the test units were allowed to dry for 1 hour before they were post-infested with 10 to 20 corn planthoppers (18- to 20-day-old nymphs) by sprinkling them onto the sand with a salt shaker. A black, screened cap was placed on the top of each container. The test units were held for 6 days in a growth chamber at 19-21° C. and 50-70% relative humidity.

The test system of assay [5] is cotton melon aphid (Aphis gossypii Glover). The note with it: Aphis gossypii, read-out: % mortality (obs); for mortality at 10 ppm: rate 10 ppm; for mortality at 100 ppm: rate 100 ppm; for mortality at 1000 ppm: rate 1000 ppm. The method, then: as §1
For evaluating control of cotton melon aphid (Aphis gossypii Glover) through contact and/or systemic means, each test unit consisted of a small open container with a 6- to 7-day-old cotton plant inside. This was pre-infested by placing on a leaf of the test plant 30 to 40 aphids on a piece of leaf excised from a culture plant (cut-leaf method). The larvae moved onto the test plant as the leaf piece desiccated. After pre-infestation, the soil of the test unit was covered with a layer of sand.
Test compounds were formulated and sprayed as described for Test A. The applications were replicated three times. After spraying of the formulated test compounds, each test unit was allowed to dry for 1 hour and then a black, screened cap was placed on top. The test units were held for 6 days in a growth chamber at 19-21° C. and 50-70% relative humidity.

Assay [6] has as its system green peach aphid (Myzus persicae Sulzer). The note with it: Myzus persicae, in Raphanus sativus, Green Peach Aphid, read-out: % mortality (obs); for mortality at 10 ppm: rate 10 ppm; for mortality at 100 ppm: rate 100 ppm; for mortality at 1000 ppm: rate 1000 ppm. As for the experimental part: as §1
For evaluating control of green peach aphid (Myzus persicae Sulzer) through contact and/or systemic means, each test unit consisted of a small open container with a 12- to 15-day-old radish plant inside. This was pre-infested by placing on a leaf of the test plant 30 to 40 aphids on a piece of leaf excised from a culture plant (cut-leaf method). The larvae moved onto the test plant as the leaf piece desiccated. After pre-infestation, the soil of the test unit was covered with a layer of sand.
Test compounds were formulated and sprayed as described in Test A, replicated three times. After spraying of the formulated test compound, each test unit was allowed to dry for 1 hour and then a black, screened cap was placed on top. The test units were held for 6 days in a growth chamber at 19-21° C. and 50-70% relative humidity.

In the case of `CCOP(=S)(OCC)Oc1nc(Cl)c(Cl)cc1Cl` [Chlorpyrifos], in assay [1] (rate 500 ppm), the mortality at 500 ppm stood at 0%. In assay [1], the mortality at 1000 ppm was determined as 0%. Further, the mortality at 2000 ppm in assay [1] (rate 2000 ppm) turned out to be 0%. Besides, in assay [2], the mortality at 10 ppm turned out to be 20%, the mortality at 100 ppm stood at 10% and the mortality at 1000 ppm stood at 10%. In assay [3], the mortality at 10 ppm was found to be 13%, the mortality at 100 ppm is 0% and the mortality at 1000 ppm came to 7%. In assay [4], the mortality at 0.1 ppm turned out to be 46%, the mortality at 0.2 ppm was determined as 24% and the mortality at 0.3 ppm was 19%. In addition, the mortality at 1 ppm in assay [5] (rate 1 ppm) stood at 26%. Also, the mortality at 5 ppm in assay [5] (rate 5 ppm) was determined as 14%. In addition, in assay [5] (rate 50 ppm), the mortality at 50 ppm turned out to be 13%. Further, in assay [6], the mortality at 10 ppm was 5%, the mortality at 100 ppm came out at 18% and the mortality at 1000 ppm was found to be 9%.

Take `Nc1nc(N)nc(NC2CC2)n1` [Cyromazine]: the mortality at 10 ppm came out at 1% in assay [1], 7% in assay [3], 23% in assay [5] and 24% in assay [6]. Further, the mortality at 100 ppm in assay [1] (rate 100 ppm) stood at 2%; in assay [3], 0%; in assay [5], 34%; in assay [6] it was 33%. Also, the mortality at 1000 ppm in assay [1] came to 2%; in assay [2], 70%; in assay [3], 0%; in assay [4] it was 8%; in assay [5] it was 28%; in assay [6] it was 65%. The mortality at 200 ppm in assay [2] (rate 200 ppm) stood at 70%; in assay [4] (rate 200 ppm) it was 4%. In addition, the mortality at 500 ppm was found to be 80% in assay [2] (rate 500 ppm) and 8% in assay [4] (rate 500 ppm).

For `CC1(C)[C@H](C(=O)O[C@H](C#N)c2cccc(Oc3ccccc3)c2)[C@@H]1C=C(Br)Br` [Deltamethrin], the mortality at 30 ppm in assay [1] (rate 30 ppm) is 2%. Further, the mortality at 40 ppm in assay [1] (rate 40 ppm) turned out to be 0%. In addition, the mortality at 50 ppm in assay [1] (rate 50 ppm) was 1%. In addition, the mortality at 10 ppm in assay [2] amounted to 70%. Moreover, the mortality at 1000 ppm in assay [2] came out at 70%; in assay [6], 9%. In addition, in assay [2] (rate 3000 ppm), the mortality at 3000 ppm came to 50%. Moreover, the values for the mortality at 0.1 ppm in assay [3] (rate 0.1 ppm), in assay [4] and in assay [5] (rate 0.1 ppm) were 7%, 11% and 52%, respectively. For the same compound, the mortality at 0.2 ppm in assay [3] (rate 0.2 ppm) was 7%; in assay [4], 14%; in assay [5] (rate 0.2 ppm) it was 39%. Also, the mortality at 1 ppm in assay [3] (rate 1 ppm) stood at 60%. Moreover, the mortality at 0.3 ppm in assay [4] amounted to 7%; in assay [5] (rate 0.3 ppm) it was 88%. In addition, the mortality at 250 ppm in assay [6] (rate 250 ppm) stood at 9%. The mortality at 300 ppm in assay [6] (rate 300 ppm) stood at 3%.

On to `CCOC(=O)NCCOc1ccc(Oc2ccccc2)cc1` [Fenoxycarb], for which, in assay [1] (rate 2 ppm), the mortality at 2 ppm worked out at 0%. In addition, the mortality at 10 ppm in assay [1] was determined as 0%; in assay [2] it was 40%; in assay [3] it was 0%; in assay [4] (rate 10 ppm), 8%; in assay [5], 16%; in assay [6], 17%. Further, in assay [1] (rate 20 ppm), the mortality at 20 ppm came to 21%. Also, the mortality at 100 ppm amounted to 70% in assay [2]; 20% in assay [3]; 2% in assay [4] (rate 100 ppm); 23% in assay [5]; 16% in assay [6]. Also, the mortality at 1000 ppm in assay [2] is 60%; in assay [3], 0%; in assay [4] it was 5%; in assay [5], 34%; in assay [6] it was 18%.
